Converted amounts (≈) assume the structure as drawn.
Tests used:
Format in all cases: cell-based
[1] = tested on: Enterococcus faecalis ATCC29212; experiment: MIC, microbroth dilution (NCCLS); settings: rifS strain, BHI Broth, 37° C., read-out: Antimicrobial activity (MIC)
[2] = tested on: Mycobacterium smegmatis ATCC700084; experiment: MIC, microbroth dilution (NCCLS); settings: Mycolicibacterium smegmatis, rifS strain, Middlebrook Broth plus ADC Enrichment, 37° C., read-out: Antimicrobial activity (MIC)
[3] = tested on: Staphylococcus epidermidis ATCC12228; experiment: MIC, microbroth dilution (NCCLS); settings: rifS strain, Cation-Adjusted Mueller-Hinton Broth, 37° C., read-out: Antimicrobial activity (MIC)
[4] = tested on: Staphylococcus aureus ATCC29213; experiment: MIC, microbroth dilution (NCCLS); settings: rifS strain, Cation-Adjusted Mueller-Hinton Broth, 37° C., read-out: Antimicrobial activity (MIC)
[5] = tested on: Escherichia coli ATCC25922; experiment: MIC, microbroth dilution (NCCLS); settings: rifS strain, Cation-Adjusted Mueller-Hinton Broth, 37° C., read-out: Antimicrobial activity (MIC)
[6] = tested on: Streptococcus pyogenes ATCC19615; experiment: MIC, microbroth dilution (NCCLS); settings: rifS strain, THY Broth, 37° C., read-out: Antimicrobial activity (MIC)
[7] = tested on: Streptococcus pneumoniae ATCC6303; experiment: MIC, microbroth dilution (NCCLS); settings: rifS strain, THY Broth with 1 mg/mL catalase, 5% CO2, 37° C., read-out: Antimicrobial activity (MIC)
[8] = tested on: Haemophilus influenzae ATCC10211; experiment: MIC, microbroth dilution (NCCLS); settings: rifS strain, BHI Broth with NAD and hematin, 37° C., read-out: Antimicrobial activity (MIC)
[9] = tested on: Staphylococcus aureus ATCC29213 rpoB^H418Y; experiment: microbe, parasite or virus in culture; settings: ATCC29213, read-out: Antimicrobial activity (MIC)
Method: (§1) Representative compounds were assayed for antimicrobial activity as follows: Minimum Inhibitory Concentrations (“MICs”) were determined by the microbroth dilution method as per NCCLS guidelines (National Committee for Clinical Laboratory Standards. 2000. Methods for dilution antimicrobial susceptibility tests for bacteria that grow aerobically, 5th ed. M7-A5. National Committee for Clinical Laboratory Standards, Wayne, Pa.), except that all growth incubations were conducted at 37° C. Bacterial cultures were tested in the following bacteriological media: S. aureus, S. epidermidis, and E. coli in Cation-Adjusted Mueller-Hinton Broth, S. pneumoniae in THY Broth supplemented with 1 mg/mL catalase under 5% CO2 atmosphere, S. pyogenes in THY Broth, E. faecalis in BHI Broth, H. influenzae in BHI Broth supplemented with 0.75 μL of 1 mg/mL NAD and 150 μL of 1 mg/ml hematin per 5 mL, and M. smegmatis in Middlebrook Broth plus ADC Enrichment.
(§2) S. aureus ATCC 29213 RpoB^H418Y is a rifampin-resistant strain with a mutation in RNA polymerase, the biological target of rifamycin antibiotics. […] S. aureus EN1252a gyrA^S84L grlA^S80F is a quinolone-resistant strain due to double mutations to DNA gyrase and topoisomerase IV, the two biological targets for quinolone antibiotics.

[10] = tested on: Staphylococcus aureus ATCC29213 rpoB^D417Y; experiment: microbe, parasite or virus in culture; settings: ATCC29213, read-out: Antimicrobial activity (MIC)
Method: as §1, §2

[11] = tested on: Staphylococcus aureus EN1252a gyrA^S84L grlA^S80F; experiment: microbe, parasite or virus in culture; settings: read-out: Antimicrobial activity (MIC)
Method: as §1, §2

Compound	MIC [1] [µg/mL]	MIC [2] [µg/mL]	MIC [3] [µg/mL]	MIC [4] [µg/mL]	MIC [5] [µg/mL]	MIC [6] [µg/mL]	MIC [7] [µg/mL]	MIC [8] [µg/mL]	MIC [9] [µg/mL]	MIC [10] [µg/mL]	MIC [11] [µg/mL]
CO[C@H]1/C=C/O[C@@]2(C)Oc3c(C)c(O)c4c(O)c(c(CN5CCN(c6cc7c(cc6F)c(=O)c(C(=O)O)cn7C6CC6)CC5)c(O)c4c3C2=O)NC(=O)/C(C)=C\C=C\[C@H](C)[C@H](O)[C@@H](C)[C@@H](O)[C@@H](C)[C@H](OC(C)=O)[C@@H]1C [Example 12, 3-[4-[3-Carboxy-1-cyclopropyl-6-fluoro-4-oxo-(1,4-dihydroquinolin-7-yl)]-piperazin-1-ylmethyl]rifamycin SV]	2 to 32 (≈ 1.92 to 30.7 µM)	0.5 to 64	0.008 to 0.063 (≈ 0.00768 to 0.0605 µM)	0.004 to 0.5 (≈ 0.00384 to 0.48 µM)	0.125 to 8 (≈ 0.12 to 7.68 µM)	0.008 to 0.063 (≈ 0.00768 to 0.0605 µM)	0.008 to 0.125 (≈ 0.00768 to 0.12 µM)	0.125 to 2 (≈ 0.12 to 1.92 µM)	0.06 to 16 (≈ 0.0576 to 15.4 µM)	0.06 to 32 (≈ 0.0576 to 30.7 µM)	0.004 to 0.5 (≈ 0.00384 to 0.48 µM)
CO[C@H]1/C=C/O[C@@]2(C)Oc3c(C)c(O)c4c(O)c(c(CN5CCN(c6nc7c(cc6F)c(=O)c(C(=O)O)cn7-c6ccc(F)cc6F)CC5)c(O)c4c3C2=O)NC(=O)/C(C)=C\C=C\[C@H](C)[C@H](O)[C@@H](C)[C@@H](O)[C@@H](C)[C@H](OC(C)=O)[C@@H]1C [Example 14, 3-[4-[3-carboxy-1-(2,4-Difluoro-phenyl)-6-fluoro-4-oxo-1,4-dihydro-[1,8]naphthyridin-7-yl]piperazin-1-ylmethyl]rifamycin SV]	2 to 32 (≈ 1.8 to 28.7 µM)	0.5 to 64	0.008 to 0.063 (≈ 0.00718 to 0.0565 µM)	0.004 to 0.5 (≈ 0.00359 to 0.449 µM)	0.125 to 8 (≈ 0.112 to 7.18 µM)	0.008 to 0.063 (≈ 0.00718 to 0.0565 µM)	0.008 to 0.125 (≈ 0.00718 to 0.112 µM)	0.125 to 2 (≈ 0.112 to 1.8 µM)	0.06 to 16 (≈ 0.0539 to 14.4 µM)	0.06 to 32 (≈ 0.0539 to 28.7 µM)	0.004 to 0.5 (≈ 0.00359 to 0.449 µM)
CO[C@H]1/C=C/O[C@@]2(C)Oc3c(C)c(O)c4c(O)c(c(CN[C@@H]5CCN(c6cc7c(cc6F)c(=O)c(C(=O)O)cn7C6CC6)C5)c(O)c4c3C2=O)NC(=O)/C(C)=C\C=C\[C@H](C)[C@H](O)[C@@H](C)[C@@H](O)[C@@H](C)[C@H](OC(C)=O)[C@@H]1C [Example 15, (R)-3-[1-(3-carboxy-1-cyclopropyl-6-fluoro-4-oxo-1,4-dihydroquinolin-7-yl)-pyrrolidinyl-3-aminomethyl]rifamycin SV]	2 to 32 (≈ 1.92 to 30.7 µM)	0.5 to 64	0.008 to 0.063 (≈ 0.00768 to 0.0605 µM)	0.004 to 0.5 (≈ 0.00384 to 0.48 µM)	0.125 to 8 (≈ 0.12 to 7.68 µM)	0.008 to 0.063 (≈ 0.00768 to 0.0605 µM)	0.008 to 0.125 (≈ 0.00768 to 0.12 µM)	0.125 to 2 (≈ 0.12 to 1.92 µM)	0.06 to 16 (≈ 0.0576 to 15.4 µM)	0.06 to 32 (≈ 0.0576 to 30.7 µM)	0.004 to 0.5 (≈ 0.00384 to 0.48 µM)
CO[C@H]1/C=C/O[C@@]2(C)Oc3c(C)c(O)c4c(O)c(c(CN[C@H]5CCN(c6cc7c(cc6F)c(=O)c(C(=O)O)cn7C6CC6)C5)c(O)c4c3C2=O)NC(=O)/C(C)=C\C=C\[C@H](C)[C@H](O)[C@@H](C)[C@@H](O)[C@@H](C)[C@H](OC(C)=O)[C@@H]1C [Example 16, (S)-3-[1-(3-carboxy-1-cyclopropyl-6-fluoro-4-oxo-1,4-dihydroquinolin-7-yl)-pyrrolidinyl-3-aminomethyl]rifamycin SV]	2 to 32 (≈ 1.92 to 30.7 µM)	0.5 to 64	0.008 to 0.063 (≈ 0.00768 to 0.0605 µM)	0.004 to 0.5 (≈ 0.00384 to 0.48 µM)	0.125 to 8 (≈ 0.12 to 7.68 µM)	0.008 to 0.063 (≈ 0.00768 to 0.0605 µM)	0.008 to 0.125 (≈ 0.00768 to 0.12 µM)	0.125 to 2 (≈ 0.12 to 1.92 µM)	0.06 to 16 (≈ 0.0576 to 15.4 µM)	0.06 to 32 (≈ 0.0576 to 30.7 µM)	0.004 to 0.5 (≈ 0.00384 to 0.48 µM)
CO[C@H]1/C=C/O[C@@]2(C)Oc3c(C)c(O)c4c(c3C2=O)C(=O)C(N2CCN(c3ccc(N5C[C@H](CNC(C)=O)OC5=O)cc3F)CC2)=C(NC(=O)/C(C)=C\C=C\[C@H](C)[C@H](O)[C@@H](C)[C@@H](O)[C@@H](C)[C@H](OC(C)=O)[C@@H]1C)C4=O [Example 23, (S)-3-[4-[4-(5-Acetylaminomethyl-2-oxo-oxazolidin-3-yl)-2-fluoro-phenyl]-piperazin-1-yl]rifamycin S]	2 to 32 (≈ 1.94 to 31.1 µM)	0.5 to 64	0.008 to 0.063 (≈ 0.00777 to 0.0612 µM)	0.004 to 0.5 (≈ 0.00388 to 0.485 µM)	0.125 to 8 (≈ 0.121 to 7.77 µM)	0.008 to 0.063 (≈ 0.00777 to 0.0612 µM)	0.008 to 0.125 (≈ 0.00777 to 0.121 µM)	0.125 to 2 (≈ 0.121 to 1.94 µM)	0.06 to 16 (≈ 0.0582 to 15.5 µM)	0.06 to 32 (≈ 0.0582 to 31.1 µM)	0.004 to 0.5 (≈ 0.00388 to 0.485 µM)
